Results published in US20040076974A1, “Liver necrosis predictive genes” (priority 2002, published 2004).
Where “and” joins values, the source holds several entries; their conditions need not be identical. Equal values may be shown once. Read-outs that look alike come from different tables or passages of the source.

How the values were obtained:
[1] = tested on: Sprague Dawley rats; conditions: for Liver Necrosis / Score (histopathology liver necrosis severity score): rat, intraperitoneal; for Liver Necrosis: 72 hours after treatment; for Score (histopathology liver necrosis severity score): 72 hours, 1 = not remarkable, 2 and higher increasing severity
How it was run: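 Toxicity calls (necrosis present or absent at 72 h) and histopathology scores were correlated with tissue gene expression from Crl:CD Sprague Dawley rats. Animals, usually 3 treated with compound by i.p. route and 3 given vehicle, were killed at 6, 24 or 72 h and tissues frozen immediately in liquid nitrogen.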

[2] = tested on: toxicologically relevant rat genes (rat CT array); conditions: 24 h
[3] = tested on: Male Sprague-Dawley rats; format: in vivo, rat; conditions: intraperitoneal injection, 200 mg/kg

ClC(Cl)(Cl)Cl [carbon tetrachloride]
Liver Toxicity Necrosis Classification ([1]; 72 h, dose 250): yes
Liver Toxicity Necrosis Classification ([1]; 72 h, dose 1000): yes
Liver Toxicity Necrosis Classification ([1]; compound-dose group at 72 h, CCL4 1000, DMN 20, LPS 8): yes
Liver Toxicity Necrosis Classification ([1]; compound-dose group at 72 h, dose 250): yes
Liver Toxicity Necrosis Classification ([1]; compound-dose group at 72 h, dose 1000): yes
Liver Toxicity Necrosis Classification ([1]; compound-dosegroup at 72 h, dose 250): yes
Liver Toxicity Necrosis Classification ([1]; compound-dosegroup at 72 h, dose 1000): yes
Liver Necrosis ([1]; dose 0.25 ml/kg): Yes
Score (histopathology liver necrosis severity score) ([1]; dose 0.25 ml/kg): 3
Liver Necrosis ([1]; dose 1 ml/kg): Yes
Score (histopathology liver necrosis severity score) ([1]; dose 1 ml/kg): 6
14-3-3 zeta expression (treatment/control) ([2]; dose 250, listed as CCL4): 1.66 and 1.924 and 1.756
17-beta hydroxysteroid dehydrogenase, type 2 expression (treatment/control) ([2]; dose 250, listed as CCL4): 1.054 and 0.5508 and 0.756
Cathepsin L, sequence 2 expression (treatment/control) ([2]; dose 250, listed as CCL4): 1.932 and 2.846 and 1.646
Dynamin-1 (D100) expression (treatment/control) ([2]; dose 250, listed as CCL4): 0.7967 and 0.581 and 0.7391
Gadd45 expression (treatment/control) ([2]; dose 250, listed as CCL4): 2.248 and 2.519 and 1.891
Gamma-actin, cytoplasmic expression (treatment/control) ([2]; dose 250, listed as CCL4): 1.21 and 1.729 and 1.683
Insulin-like growth factor binding protein 1 expression (treatment/control) ([2]; dose 250, listed as CCL4): 1.423 and 1.69 and 1.605
L-gulono-gamma-lactone oxidase expression (treatment/control) ([2]; dose 250, listed as CCL4): 0.5457 and 0.345 and 0.5416
Matrin F/G expression (treatment/control) ([2]; dose 250, listed as CCL4): 0.8257 and 0.6948 and 0.7947
Ornithine decarboxylase expression (treatment/control) ([2]; dose 250, listed as CCL4): 1.229 and 1.514 and 1.453
PAR interacting protein expression (treatment/control) ([2]; dose 250, listed as CCL4): 1.251 and 1.611 and 1.178
Phase-1 RCT-33 expression (treatment/control) ([2]; dose 250, listed as CCL4): 0.7
Phase-1 RCT-36 expression (treatment/control) ([2]; dose 250, listed as CCL4): 0.9183 and 0.9601
Phase-1 RCT-38 expression (treatment/control) ([2]; dose 250, listed as CCL4): 0.6811 and 0.8069
Phase-1 RCT-39 expression (treatment/control) ([2]; dose 250, listed as CCL4): 1.553
Phase-1 RCT-40 expression (treatment/control) ([2]; dose 250, listed as CCL4): 0.8329
Phase-1 RCT-48 expression (treatment/control) ([2]; dose 250, listed as CCL4): 0.8905
Phase-1 RCT-49 expression (treatment/control) ([2]; dose 250, listed as CCL4): 1.595 and 1.935 and 1.969
Phase-1 RCT-50 expression (treatment/control) ([2]; dose 250, listed as CCL4): 1.199 and 1.292
Phase-1 RCT-68 expression (treatment/control) ([2]; dose 250, listed as CCL4): 1.615
Phase-1 RCT-78 expression (treatment/control) ([2]; dose 250, listed as CCL4): 0.6214
Phase-1 RCT-83 expression (treatment/control) ([2]; dose 250, listed as CCL4): 0.8265 and 0.5965 and 0.5296
Phase-1 RCT-89 expression (treatment/control) ([2]; dose 250, listed as CCL4): 0.7738 and 0.5787 and 0.6881
Phase-1 RCT-92 expression (treatment/control) ([2]; dose 250, listed as CCL4): 0.6412 and 0.598 and 0.6063
Phase-1 RCT-128 expression (treatment/control) ([2]; dose 250, listed as CCL4): 0.7659 and 0.5352 and 0.6882
Phase-1 RCT-144 expression (treatment/control) ([2]; dose 250, listed as CCL4): 1.636 and 2.462 and 1.54
Phase-1 RCT-145 expression (treatment/control) ([2]; dose 250, listed as CCL4): 1.894
Phase-1 RCT-180 expression (treatment/control) ([2]; dose 250, listed as CCL4): 1.103
Phase-1 RCT-182 expression (treatment/control) ([2]; dose 250, listed as CCL4): 0.5663 and 0.6692
Phase-1 RCT-213 expression (treatment/control) ([2]; dose 250, listed as CCL4): 1.658 and 1.455
Phase-1 RCT-256 expression (treatment/control) ([2]; dose 250, listed as CCL4): 0.6795 and 0.8008
Phase-1 RCT-264 expression (treatment/control) ([2]; dose 250, listed as CCL4): 0.5556 and 0.3693 and 0.5559
Phase-1 RCT-288 expression (treatment/control) ([2]; dose 250, listed as CCL4): 0.6979 and 0.5773 and 0.6386
Phase-1 RCT-291 expression (treatment/control) ([2]; dose 250, listed as CCL4): 0.7629 and 0.7701
Phase-1 RCT-295 expression (treatment/control) ([2]; dose 250, listed as CCL4): 1.942 and 1.579
Ribosomal protein S17 expression (treatment/control) ([2]; dose 250, listed as CCL4): 1.826 and 2.664 and 2.129
Senescence marker protein-30 expression (treatment/control) ([2]; dose 250, listed as CCL4): 0.7864 and 0.5048 and 0.8299
Zinc finger protein expression (treatment/control) ([2]; dose 250, listed as CCL4): 1.078 and 1.318 and 1.451
14-3-3 zeta expression (treatment/control) ([2]; dose 1000): 2.165
17-beta hydroxysteroid dehydrogenase, type 2 expression (treatment/control) ([2]; dose 1000): 0.5477
Cathepsin L, sequence 2 expression (treatment/control) ([2]; dose 1000): 4.767
Dynamin-1 (D100) expression (treatment/control) ([2]; dose 1000): 0.4373
Gadd45 expression (treatment/control) ([2]; dose 1000): 2.03
Gamma-actin, cytoplasmic expression (treatment/control) ([2]; dose 1000): 2.857
Insulin-like growth factor binding protein 1 expression (treatment/control) ([2]; dose 1000): 2.908
L-gulono-gamma-lactone oxidase expression (treatment/control) ([2]; dose 1000): 0.2874
Matrin F/G expression (treatment/control) ([2]; dose 1000): 0.5748
Ornithine decarboxylase expression (treatment/control) ([2]; dose 1000): 2.004
PAR interacting protein expression (treatment/control) ([2]; dose 1000): 1.736
Phase-1 RCT-33 expression (treatment/control) ([2]; dose 1000): 0.4824
Phase-1 RCT-36 expression (treatment/control) ([2]; dose 1000): 0.6382
Phase-1 RCT-38 expression (treatment/control) ([2]; dose 1000): 0.5871
Phase-1 RCT-39 expression (treatment/control) ([2]; dose 1000): 1.821
Phase-1 RCT-40 expression (treatment/control) ([2]; dose 1000): 0.7596
Phase-1 RCT-48 expression (treatment/control) ([2]; dose 1000): 0.9803
Phase-1 RCT-49 expression (treatment/control) ([2]; dose 1000): 2.488
Phase-1 RCT-50 expression (treatment/control) ([2]; dose 1000): 1.792
Phase-1 RCT-68 expression (treatment/control) ([2]; dose 1000): 1.656
Phase-1 RCT-78 expression (treatment/control) ([2]; dose 1000): 0.5578
Phase-1 RCT-83 expression (treatment/control) ([2]; dose 1000): 0.3247
Phase-1 RCT-89 expression (treatment/control) ([2]; dose 1000): 0.4606
Phase-1 RCT-92 expression (treatment/control) ([2]; dose 1000): 0.3009
Phase-1 RCT-128 expression (treatment/control) ([2]; dose 1000): 0.3095
Phase-1 RCT-144 expression (treatment/control) ([2]; dose 1000): 2.627
Phase-1 RCT-145 expression (treatment/control) ([2]; dose 1000): 1.753
Phase-1 RCT-180 expression (treatment/control) ([2]; dose 1000): 1.291
Phase-1 RCT-182 expression (treatment/control) ([2]; dose 1000): 0.3598
Phase-1 RCT-207 expression (treatment/control) ([2]; dose 1000): 2.086
Phase-1 RCT-213 expression (treatment/control) ([2]; dose 1000): 1.988
Phase-1 RCT-256 expression (treatment/control) ([2]; dose 1000): 0.6382
Phase-1 RCT-264 expression (treatment/control) ([2]; dose 1000): 0.2087
Phase-1 RCT-288 expression (treatment/control) ([2]; dose 1000): 0.4221
Phase-1 RCT-291 expression (treatment/control) ([2]; dose 1000): 0.5561
Phase-1 RCT-295 expression (treatment/control) ([2]; dose 1000): 2.11
Phase-1 RCT-296 expression (treatment/control) ([2]; dose 1000): 0.2278
Ribosomal protein S17 expression (treatment/control) ([2]; dose 1000): 3.461
Senescence marker protein-30 expression (treatment/control) ([2]; dose 1000): 0.2057
Zinc finger protein expression (treatment/control) ([2]; dose 1000): 1.697

CC(=N)S [thioacetamide]
hepatocellular necrosis by histopathology [3]: induced hepatocellular necrosis
